Data as given in patent EP4755886A1 (Chengdu Chipscreen Pharmaceutical Ltd., priority 2023, dated 2025).

What was measured:
[1] = system: MTAP^-/- HCT-116 cells; assay: Cell proliferation (MTS), MTAP-/- HCT-116; format: cell-based, human; conditions: for Selectivity: HCT116 WT IC50 relative to HCT116 MTAP-/- IC50; for IC50: Homo sapiens, 240 h, MTAP-/- HCT-116, 10 days with compound, MTS reading, read-out: IC50 HCT116 MTAP-/-
Method in brief: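 MTAP-/- (CRISPR/Cas9 biallelic knockout) or wild-type HCT-116 cells seeded at 100 cells/well, treated next day with 8-point 3-fold dilutions (top 20 µM) for 10 days at 37 °C, 5% CO2. Viability read by MTS; IC50 from four-parameter logistic fit of inhibition rate vs log concentration.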

[2] = system: wild-type HCT-116 cells; assay: Cell proliferation (MTS), wild-type HCT-116; format: cell-based; conditions: Homo sapiens, 240 h; wild-type HCT-116, 10 days with compound, MTS reading; read-out: IC50 HCT116 WT
Method: MTAP^-/- HCT-116 and wild-type HCT-116 cell strains were cultured in complete medium McCoy's 5A (Gibco, 16600082)/10% FBS (Gibco, 10099141C)/1% p/s (Gibco, 15140122) to evaluate the enhanced inhibitory effect of the compounds against the proliferation selectivity of MTAP^-/- HCT-116 cells. On day 0, MTAP^-/- HCT-116 cells or wild-type HCT-116 cells were added to a 96-well cell culture plate (Corning, 3599) at 100 cells/well, and the plate was incubated in an incubator at 37 °C with 5% CO2. The compound was diluted in a 3-fold gradient with DMSO (Sigma, D5879) (initial concentration: 20 µM, 3-fold dilution, 8 concentration points in total). On day 1, the compound was diluted to multiple concentration points, and the cells were treated separately and incubated in the incubator at 37 °C with 5% CO2 for another 10 days. On Day 11, 20 µL of MTS (CellTiter 96® AQueous One Solution Cell Proliferation Assay) (Promega, G3581) was added to each well. […] In the formula, Y represents the inhibition rate, X represents the logarithm of the compound concentration, Top represents the maximum response (the inhibition rate at the maximum compound concentration), Bottom represents the baseline response (the inhibition rate where the compound concentration was 0), Hill Slope represents the slope of the IC50 curve, and IC50 represents the half maximal inhibitory concentration. Table 1. IC50 (µM)

Row | Compound | IC50 [1] [nM] | IC50 [2] [nM] | Selectivity [1]
1 | Cc1c(C#Cc2ccc3c(c2)OC[C@H]3N(C)C(=O)c2ccc3nc(N)c4cnn(C)c4c3c2)cnn1C [Compound 29A, (S)-4-amino-N-(6-((1,5-dimethyl-1H-pyrazol-4-yl)ethynyl)-2,3-dihydrobenzofuran-3-yl)-N,1-dimethyl-1H-pyrazolo[4,3-c]quinoline-8-carboxamide] | 3.6 | 480 | 133
2 | CN(C(=O)c1cc2c(cc1F)nc(N)c1cnn(C)c12)C1COc2cc(C#Cc3cn(C)nc3C(F)(F)F)ccc21 (stereo not drawn) [Compound 32, 4-amino-7-fluoro-N,1-dimethyl-N-(6-((1-methyl-3-(trifluoromethyl)-1H-pyrazol-4-yl)ethynyl)-2,3-dihydrobenzofuran-3-yl)-1H-pyrazolo[4,3-c]quinoline-8-carboxamide] | 22 | 2270 | 103
3 | CN(C(=O)c1cc2c(cc1F)nc(N)c1cnn(C)c12)C1COc2cc(C#Cc3ccnn3C)ccc21 (stereo not drawn) [Compound 36, 4-amino-7-fluoro-N,1-dimethyl-N-(6-((1-methyl-1H-pyrazol-5-yl)ethynyl)-2,3-dihydrobenzofuran-3-yl)-1H-pyrazolo[4,3-c]quinoline-8-carboxamide] | 13.7 | 1730 | 126
4 | CN(C(=O)c1cc2c(cc1F)nc(N)c1cnn(C)c12)C1COc2cc(C#Cc3cnn(C(F)F)c3)ccc21 (stereo not drawn) [Compound 41, 4-amino-N-(6-((1-(difluoromethyl)-1H-pyrazol-4-yl)ethynyl)-2,3-dihydrobenzofuran-3-yl)-7-fluoro-N,1-dimethyl-1H-pyrazolo[4,3-c]quinoline-8-carboxamide] | 13.8 | 1780 | 129
5 | CN(C(=O)c1cc2c(cc1F)nc(N)c1cnn(C)c12)C1COc2cc(C#Cc3cnccc3C(F)F)ccc21 (stereo not drawn) [Compound 42, 4-amino-N-(6-((4-(difluoromethyl)pyridin-3-yl)ethynyl)-2,3-dihydrobenzofuran-3-yl)-7-fluoro-N,1-dimethyl-1H-pyrazolo[4,3-c]quinoline-8-carboxamide] | 18.5 | 785 | 42
6 | Cc1ncccc1C#Cc1ccc2c(c1)OC[C@H]2N(C)C(=O)c1cc2c(cc1F)nc(N)c1cnn(C)c12 [Compound 45A, (S)-4-amino-7-fluoro-N,1-dimethyl-N-(6-((2-methylpyridin-3-yl)ethynyl)-2,3-dihydrobenzofuran-3-yl)-1H-pyrazolo[4,3-c]quinoline-8-carboxamide] | 4 | 213 | 53
7 | CN1CCn2c(C#Cc3ccc4c(c3)OCC4N(C)C(=O)c3cc4c(cc3F)nc(N)c3cnn(C)c34)cnc2C1 (stereo not drawn) [Compound 46, 4-amino-7-fluoro-N,1-dimethyl-N-(6-((7-methyl-5,6,7,8-tetrahydroimidazo[1,2-a]pyrazin-3-yl)ethynyl)-2,3-dihydrobenzofuran-3-yl)-1H-pyrazolo[4,3-c]quinoline-8-carboxamide] | 3 | 467 | 156
8 | Cc1nn(C)cc1C#Cc1ccc2c(c1)OC[C@H]2N(C)C(=O)c1ccc2nc(N)c3cnn(C)c3c2c1 [Compound 49A, (S)-4-amino-N-(6-((1,3-dimethyl-1H-pyrazol-4-yl)ethynyl)-2,3-dihydrobenzofuran-3-yl)-N,1-dimethyl-1H-pyrazolo[4,3-c]quinoline-8-carboxamide] | 1.8 | 378 | 210
9 | CN(C(=O)c1cc2c(cc1Cl)nc(N)c1cnn(C)c12)[C@@H]1COc2cc(C#Cc3ccnn3C)ccc21 [Compound 53A, (S)-4-amino-7-chloro-N,1-dimethyl-N-(6-((1-methyl-1H-pyrazol-5-yl)ethynyl)-2,3-dihydrobenzofuran-3-yl)-1H-pyrazolo[4,3-c]quinoline-8-carboxamide] | 1 | 45 | 45
10 | Cc1ccc(C#Cc2ccc3c(c2)OC[C@H]3N(C)C(=O)c2cc3c(cc2Cl)nc(N)c2cnn(C)c23)cn1 [Compound 55A, (S)-4-amino-7-chloro-N,1-dimethyl-N-(6-((6-methylpyridin-3-yl)ethynyl)-2,3-dihydrobenzofuran-3-yl)-1H-pyrazolo[4,3-c]quinoline-8-carboxamide] | 5 | 217 | 43

Further compounds by falling IC50 [1], results first:

Row | IC50 [1] [nM] | IC50 [2] [nM] | Compound | Selectivity [1]
11 | 22 | 2040 | Cc1cn(C)nc1C#Cc1ccc2c(c1)OCC2N(C)C(=O)c1cc2c(cc1F)nc(N)c1cnn(C)c12 (stereo not drawn) [Compound 37, 4-amino-N-(6-((1,4-dimethyl-1H-pyrazol-3-yl)ethynyl)-2,3-dihydrobenzofuran-3-yl)-7-fluoro-N,1-dimethyl-1H-pyrazolo[4,3-c]quinoline-8-carboxamide] | 93
12 | 14.2 | 1460 | CN(C(=O)c1ccc2nc(N)c3cnn(C)c3c2c1)C1COc2cc(C#Cc3cn(C)nc3C(F)(F)F)ccc21 (stereo not drawn) [Compound 31, 4-amino-N,1-dimethyl-N-(6-((1-methyl-3-(trifluoromethyl)-1H-pyrazol-4-yl)ethynyl)-2,3-dihydrobenzofuran-3-yl)-1H-pyrazolo[4,3-c]quinoline-8-carboxamide] | 102
13 | 11 | 736 | Cc1ccncc1C#Cc1ccc2c(c1)OCC2N(C)C(=O)c1cc2c(cc1F)nc(N)c1cnn(C)c12 (stereo not drawn) [Compound 44, 4-amino-7-fluoro-N,1-dimethyl-N-(6-((4-methylpyridin-3-yl)ethynyl)-2,3-dihydrobenzofuran-3-yl)-1H-pyrazolo[4,3-c]quinoline-8-carboxamide] | 67
14 | 7.6 | 1140 | CN(C(=O)c1ccc2nc(N)c3cnn(C)c3c2c1)C1COc2cc(C#Cc3cn(C)nc3Cl)ccc21 (stereo not drawn) [Compound 34, 4-amino-N-(6-((3-chloro-1-methyl-1H-pyrazol-4-yl)ethynyl)-2,3-dihydrobenzofuran-3-yl)-N,1-dimethyl-1H-pyrazolo[4,3-c]quinoline-8-carboxamide] | 150
15 | 5.2 | 598 | Cc1cncc(C#Cc2ccc3c(c2)OC[C@H]3N(C)C(=O)c2cc3c(cc2F)nc(N)c2cnn(C)c23)c1 [Compound 47A, (S)-4-amino-7-fluoro-N,1-dimethyl-N-(6-((5-methylpyridin-3-yl)ethynyl)-2,3-dihydrobenzofuran-3-yl)-1H-pyrazolo[4,3-c]quinoline-8-carboxamide] | 115
16 | 4.4 | 567 | CN(C(=O)c1cc2c(cc1F)nc(N)c1cnn(C)c12)C1COc2nc(C#Cc3cnn(C)c3)ccc21 (stereo not drawn) [Compound 33, 4-amino-7-fluoro-N,1-dimethyl-N-(6-((1-methyl-1H-pyrazol-4-yl)ethynyl)-2,3-dihydrofuro[2,3-b]pyridin-3-yl)-1H-pyrazolo[4,3-c]quinoline-8-carboxamide] | 129
17 | 3.3 | 192 | CN(C(=O)c1ccc2nc(N)c3cnn(C)c3c2c1)[C@@H]1COc2cc(C#Cc3cn(C)nc3C(F)(F)F)ccc21 [Compound 31A, (S)-4-amino-N,1-dimethyl-N-(6-((1-methyl-3-(trifluoromethyl)-1H-pyrazol-4-yl)ethynyl)-2,3-dihydrobenzofuran-3-yl)-1H-pyrazolo[4,3-c]quinoline-8-carboxamide] | 58
18 | 2.9 | 240 | CN(C(=O)c1ccc2nc(N)c3cnn(C)c3c2c1)[C@@H]1COc2cc(C#Cc3cnn(C(F)F)c3)ccc21 [Compound 30A, (S)-4-amino-N-(6-((1-(difluoromethyl)-1H-pyrazol-4-yl)ethynyl)-2,3-dihydrobenzofuran-3-yl)-N,1-dimethyl-1H-pyrazolo[4,3-c]quinoline-8-carboxamide] | 83
19 | 2 | 266 | CN(C(=O)c1ccc2nc(N)c3cnn(C)c3c2c1)[C@@H]1COc2cc(C#Cc3cn(C)nc3Cl)ccc21 [Compound 34A, (S)-4-amino-N-(6-((3-chloro-1-methyl-1H-pyrazol-4-yl)ethynyl)-2,3-dihydrobenzofuran-3-yl)-N,1-dimethyl-1H-pyrazolo[4,3-c]quinoline-8-carboxamide] | 133
20 | 2 | 141 | CN(C(=O)c1cc2c(cc1F)nc(N)c1cnn(C)c12)[C@@H]1COc2cc(C#Cc3cccnc3)ccc21 [Compound 48A, (S)-4-amino-7-fluoro-N,1-dimethyl-N-(6-(pyridin-3-ylethynyl)-2,3-dihydrobenzof uran-3-yl)-1H-pyrazolo[4,3-c]quinoline-8-carboxamide] | 71
